Experimental data reported in US20080051464A1, “Protein phosphatase inhibitors” (The Cleveland Clinic Foundation, priority 2006, published 2008).

Tested on: SHP-1 substrate pLck-pY394 in Jurkat T cells
Test: induction of pLck-pY394 in Jurkat cells (SDS-PAGE/Western blotting)
Format: cell-based, human
Procedure: (§1) Jurkat cells in culture medium (3×10^6 cells/ml, 1 ml/tube) were treated with agents for designated times at room temperature. After brief centrifuging in a microfuge (4,000 rpm, 2 min), the cell pellet was lysed on ice for 30 min in 100 μl of cold lysis buffer (1% NP40, 50 mM Tris, pH 7.4, 150 mM NaCl, 20 mM NaF, 0.2 mM Na3VO4 and 1 mM Na3MO4) containing a cocktail of proteinase inhibitors (Sigma, 1 tablet/10 ml). The lysates were cleared by centrifuging (14,000 rpm, 10 min) in a microfuge at 4° C. to remove insoluble parts, mixed with equal volume of 2×SDS-PAGE sample buffer, boiled for 5 min and analyzed (˜3×10^5 cells/well) by SDS-PAGE/Western blotting. Relative intensities of phosphotyrosine bands were quantified through densitometry analysis.
as §1, with “blotting as described previously (23, 24).” for “blotting.”
as §1, with “blotting as described previously (17, 18).” for “blotting.”

Question: With `O=C1C=CC(=O)C(c2cc(Cl)ccc2Cl)=C1` [L5] as the compound, how does the “level capable of inhibiting SHP-1 in Jurkat T cells” value read?
Answer: 10 ng/mL

Question: And the “level capable of inhibiting SHP-1 in Jurkat T cells (molar)” value?
Answer: ~40 nM

Question: What about the pLck-pY394 induction (0.01 μg/ml, 10 min) of the same compound?
Answer: 2-3 fold

Question: What about the pLck-pY394 induction (0.1, 1 or 3 μg/ml, 10 min) of the same compound?
Answer: > 4 folds

Question: And the “effective dose for pLck-pY394 induction / intracellular SHP-1 inhibition” value (Jurkat cells, 10 min)?
Answer: ≥ 0.01 μg/ml

Question: And the “pLck-pY394 induction in comparison to untreated control” value (Jurkat cells, 10 min, densitometry (FIG. 2))?
Answer: ~10 fold

Question: And the “potency relative to SSG” value (by weight)?
Answer: approximately 1,000 fold

Question: What about the “potency relative to SSG” value (in equal molar ratios) of the same compound?
Answer: ~350 fold
